Test results reported in the supplement of paper PMC10627819.

Key:
S. pneumoniae D39V [1] = experiment: fitness (endpoint OD595 vs no drug) (fraction); higher = more growth
Outline: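 Each well of a 384-well plate received 30 µl of culture at OD595 0.01, or 55 µl for S. pneumoniae. TSB, LB Lennox or CY served as media at 37 °C. OD595 was taken every 30 min for 14 h and corrected by subtracting the first reading. Fitness is the optical density at stationary-phase entry divided by the robust mean of no-drug controls, capped at 1.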

S. pneumoniae D39V [2] = experiment: Bliss interaction score (quartile over a dose matrix) (fitness difference); higher = more antagonism (negative = synergy)
Outline: (§1)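 Fitness is OD595 at stationary-phase entry relative to the plate's robust no-drug mean, capped at 1. Single-drug fitness was inferred from combinations. The Bliss score is observed minus product-expected fitness, summarised by quartiles over technical, biological and donor/recipient replicates.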

S. aureus DSM 20231 = experiment: as above
Outline: as §1

B. subtilis 168 = experiment: as above
Outline: as §1

S. aureus Newman = experiment: as above
Outline: as §1
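Throughout, for Bliss interaction score (quartile over a dose matrix): first quartile when negative (synergy) and third quartile when positive (antagonism).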

CC1(C)S[C@@H]2[C@H](NC(=O)[C@H](N)c3ccc(O)cc3)C(=O)N2[C@H]1C(=O)O [Amoxicillin] + O=C1CN(/N=C/c2ccc([N+](=O)[O-])o2)C(=O)N1 [Nitrofurantoin]
fitness (S. pneumoniae D39V [1]; first compound 0.0008 µg/mL, partner 1.285 µg/mL): ≥ 1
fitness (S. pneumoniae D39V [1]; first compound 0.0008 µg/mL, partner 2 µg/mL, one replicate): 0.93
fitness (S. pneumoniae D39V [1]; first compound 0.0008 µg/mL, partner 2.57 µg/mL): 0.957
fitness (S. pneumoniae D39V [1]; first compound 0.0008 µg/mL, partner 4 µg/mL, one replicate): 0.979
fitness (S. pneumoniae D39V [1]; first compound 0.0008 µg/mL, partner 5.14 µg/mL, one replicate): 0.928
fitness (S. pneumoniae D39V [1]; first compound 0.0008 µg/mL, partner 8 µg/mL, one replicate): 0.944
fitness (S. pneumoniae D39V [1]; first compound 0.0015 µg/mL, partner 1.285 µg/mL): 0.92
fitness (S. pneumoniae D39V [1]; first compound 0.0015 µg/mL, partner 2 µg/mL): 0.906
fitness (S. pneumoniae D39V [1]; first compound 0.0015 µg/mL, partner 2.57 µg/mL): 0.962
fitness (S. pneumoniae D39V [1]; first compound 0.0015 µg/mL, partner 4 µg/mL): 0.897
fitness (S. pneumoniae D39V [1]; first compound 0.0015 µg/mL, partner 5.14 µg/mL, one replicate): 0.921
fitness (S. pneumoniae D39V [1]; first compound 0.0015 µg/mL, partner 8 µg/mL): 0.903
fitness (S. pneumoniae D39V [1]; first compound 0.003 µg/mL, partner 1.285 µg/mL): 0.909
fitness (S. pneumoniae D39V [1]; first compound 0.003 µg/mL, partner 2 µg/mL): 0.859
fitness (S. pneumoniae D39V [1]; first compound 0.003 µg/mL, partner 2.57 µg/mL): 0.922
fitness (S. pneumoniae D39V [1]; first compound 0.003 µg/mL, partner 4 µg/mL): 0.868
fitness (S. pneumoniae D39V [1]; first compound 0.003 µg/mL, partner 5.14 µg/mL, one replicate): 0.857
fitness (S. pneumoniae D39V [1]; first compound 0.003 µg/mL, partner 8 µg/mL): 0.875
fitness (S. pneumoniae D39V [1]; first compound 0.006 µg/mL, partner 2 µg/mL, one replicate): 0.43
fitness (S. pneumoniae D39V [1]; first compound 0.006 µg/mL, partner 4 µg/mL, one replicate): 0.433
fitness (S. pneumoniae D39V [1]; first compound 0.006 µg/mL, partner 8 µg/mL, one replicate): 0.514
Bliss interaction score (S. pneumoniae D39V [2]): 0.11
Bliss interaction score (S. aureus DSM 20231): -0.0521
Bliss interaction score (B. subtilis 168): -0.206
Bliss interaction score (S. aureus Newman): 0.0375

CO/N=C(\C(=O)N[C@@H]1C(=O)N2C(C(=O)[O-])=C(C[N+]3(C)CCCC3)CS[C@H]12)c1csc(N)n1 [Cefepime] + CCC(C)C1C(=O)NC(=C)C(=O)NC(C(=O)NC(CSCC(C(=O)N1)NC(=O)/C(=C/C)/NC(=O)C(C(C)CC)N)C(=O)NC2C(SCC(NC(=O)CNC(=O)C3CCCN3C2=O)C(=O)NC(CCCCN)C(=O)NC4C(SCC(NC(=O)CNC(=O)C(NC(=O)C(NC(=O)C(NC(=O)CNC4=O)C)CC(C)C)CCSC)C(=O)NC(CC(=O)N)C(=O)NC(CCSC)C(=O)NC(CCCCN)C(=O)NC5C(SCC6C(=O)NC(C(=O)NC(CSC(C(C(=O)N6)NC(=O)C(NC5=O)C)C)C(=O)NC(CO)C(=O)NC(C(C)CC)C(=O)NC(CC7=CN=CN7)C(=O)NC(C(C)C)C(=O)NC(=C)C(=O)NC(CCCCN)C(=O)O)CC8=CN=CN8)C)C)C)CC(C)C [Nisin]
fitness (S. pneumoniae D39V [1]; first compound 0.007 µg/mL, partner 1.6 µg/mL, main component drawn): 0.0039
fitness (S. pneumoniae D39V [1]; first compound 0.007 µg/mL, partner 3.2 µg/mL, main component drawn): 0.0024
fitness (S. pneumoniae D39V [1]; first compound 0.007 µg/mL, partner 6.4 µg/mL, main component drawn): 0.0023
fitness (S. pneumoniae D39V [1]; first compound 0.0078 µg/mL, partner 0.4275 µg/mL, main component drawn): 0.996
fitness (S. pneumoniae D39V [1]; first compound 0.0078 µg/mL, partner 0.855 µg/mL, main component drawn): ≥ 1
fitness (S. pneumoniae D39V [1]; first compound 0.0078 µg/mL, partner 1.71 µg/mL, main component drawn): 0.189
fitness (S. pneumoniae D39V [1]; first compound 0.014 µg/mL, partner 1.6 µg/mL, main component drawn): 0.0058
fitness (S. pneumoniae D39V [1]; first compound 0.014 µg/mL, partner 3.2 µg/mL, main component drawn): 0.0156
fitness (S. pneumoniae D39V [1]; first compound 0.014 µg/mL, partner 6.4 µg/mL, main component drawn): 0.0123
fitness (S. pneumoniae D39V [1]; first compound 0.0155 µg/mL, partner 0.4275 µg/mL, main component drawn): 0.996
fitness (S. pneumoniae D39V [1]; first compound 0.0155 µg/mL, partner 0.855 µg/mL, main component drawn): 0.974
fitness (S. pneumoniae D39V [1]; first compound 0.0155 µg/mL, partner 1.71 µg/mL, main component drawn): 0.126
fitness (S. pneumoniae D39V [1]; first compound 0.028 µg/mL, partner 1.6 µg/mL, main component drawn): 0.0484
fitness (S. pneumoniae D39V [1]; first compound 0.028 µg/mL, partner 3.2 µg/mL, main component drawn): 0.0251
fitness (S. pneumoniae D39V [1]; first compound 0.028 µg/mL, partner 6.4 µg/mL, main component drawn): 0.0152
fitness (S. pneumoniae D39V [1]; first compound 0.031 µg/mL, partner 1.71 µg/mL, main component drawn): 0.103
Bliss interaction score (S. pneumoniae D39V [2]; main component drawn): -0.0526
Bliss interaction score (S. aureus DSM 20231; main component drawn): -0.0745
Bliss interaction score (B. subtilis 168; main component drawn): -0.0465
Bliss interaction score (S. aureus Newman; main component drawn): -0.0777

CO/N=C(\C(=O)N[C@@H]1C(=O)N2C(C(=O)[O-])=C(C[N+]3(C)CCCC3)CS[C@H]12)c1csc(N)n1 [Cefepime] + CN(C)C(=O)C(CCN1CCC(O)(c2ccc(Cl)cc2)CC1)(c1ccccc1)c1ccccc1 [Loperamide]
fitness (S. pneumoniae D39V [1]; first compound 0.007 µg/mL, partner 20 µg/mL): ≥ 1
fitness (S. pneumoniae D39V [1]; first compound 0.007 µg/mL, partner 40 µg/mL): ≥ 1
fitness (S. pneumoniae D39V [1]; first compound 0.007 µg/mL, partner 80 µg/mL): 0.913
fitness (S. pneumoniae D39V [1]; first compound 0.0078 µg/mL, partner 17.14 µg/mL): ≥ 1
fitness (S. pneumoniae D39V [1]; first compound 0.0078 µg/mL, partner 34.28 µg/mL): 0.969
fitness (S. pneumoniae D39V [1]; first compound 0.0078 µg/mL, partner 68.57 µg/mL, one replicate): ≥ 1
fitness (S. pneumoniae D39V [1]; first compound 0.014 µg/mL, partner 20 µg/mL): ≥ 1
fitness (S. pneumoniae D39V [1]; first compound 0.014 µg/mL, partner 40 µg/mL): ≥ 1
fitness (S. pneumoniae D39V [1]; first compound 0.0155 µg/mL, partner 17.14 µg/mL): 0.952
fitness (S. pneumoniae D39V [1]; first compound 0.0155 µg/mL, partner 34.28 µg/mL): 0.854
fitness (S. pneumoniae D39V [1]; first compound 0.0155 µg/mL, partner 68.57 µg/mL, one replicate): ≥ 1
fitness (S. pneumoniae D39V [1]; first compound 0.028 µg/mL, partner 20 µg/mL): 0.911
fitness (S. pneumoniae D39V [1]; first compound 0.028 µg/mL, partner 40 µg/mL): 0.841
fitness (S. pneumoniae D39V [1]; first compound 0.031 µg/mL, partner 68.57 µg/mL, one replicate): 0.48
Bliss interaction score (S. pneumoniae D39V [2]): -0.0863
Bliss interaction score (S. aureus DSM 20231): 0.156
Bliss interaction score (B. subtilis 168): -0.171
Bliss interaction score (S. aureus Newman): 0.0533

CO/N=C(\C(=O)N[C@@H]1C(=O)N2C(C(=O)[O-])=C(C[N+]3(C)CCCC3)CS[C@H]12)c1csc(N)n1 [Cefepime] + CO[C@H]1/C=C/O[C@@]2(C)Oc3c(C)c(O)c4c(O)c(c(/C=N/N5CCN(C)CC5)c(O)c4c3C2=O)NC(=O)/C(C)=C\C=C\[C@H](C)[C@H](O)[C@@H](C)[C@@H](O)[C@@H](C)[C@H](OC(C)=O)[C@@H]1C [Rifampicin]
fitness (S. pneumoniae D39V [1]; first compound 0.007 µg/mL, partner 0.025 µg/mL): ≥ 1
fitness (S. pneumoniae D39V [1]; first compound 0.007 µg/mL, partner 0.05 µg/mL): ≥ 1
fitness (S. pneumoniae D39V [1]; first compound 0.007 µg/mL, partner 0.1 µg/mL): 0.477
fitness (S. pneumoniae D39V [1]; first compound 0.0078 µg/mL, partner 0.025 µg/mL, one replicate): 0.884
fitness (S. pneumoniae D39V [1]; first compound 0.0078 µg/mL, partner 0.2 µg/mL, one replicate): 0
fitness (S. pneumoniae D39V [1]; first compound 0.014 µg/mL, partner 0.025 µg/mL): 0.992
fitness (S. pneumoniae D39V [1]; first compound 0.014 µg/mL, partner 0.05 µg/mL): 0.995
fitness (S. pneumoniae D39V [1]; first compound 0.014 µg/mL, partner 0.1 µg/mL): 0.47
fitness (S. pneumoniae D39V [1]; first compound 0.0155 µg/mL, partner 0.025 µg/mL, one replicate): 0.779
fitness (S. pneumoniae D39V [1]; first compound 0.0155 µg/mL, partner 0.1 µg/mL): 0.325
fitness (S. pneumoniae D39V [1]; first compound 0.0155 µg/mL, partner 0.2 µg/mL, one replicate): 0
fitness (S. pneumoniae D39V [1]; first compound 0.028 µg/mL, partner 0.025 µg/mL): 0.93
fitness (S. pneumoniae D39V [1]; first compound 0.028 µg/mL, partner 0.05 µg/mL): 0.936
fitness (S. pneumoniae D39V [1]; first compound 0.028 µg/mL, partner 0.1 µg/mL): 0.222
fitness (S. pneumoniae D39V [1]; first compound 0.031 µg/mL, partner 0.025 µg/mL, one replicate): 0.31
fitness (S. pneumoniae D39V [1]; first compound 0.031 µg/mL, partner 0.1 µg/mL): 0.208
fitness (S. pneumoniae D39V [1]; first compound 0.031 µg/mL, partner 0.2 µg/mL, one replicate): 0
Bliss interaction score (S. pneumoniae D39V [2]): 0.0513
Bliss interaction score (S. aureus DSM 20231): 0.136
Bliss interaction score (B. subtilis 168): 0.118
Bliss interaction score (S. aureus Newman): 0.035

CO/N=C(\C(=O)N[C@@H]1C(=O)N2C(C(=O)[O-])=C(C[N+]3(C)CCCC3)CS[C@H]12)c1csc(N)n1 [Cefepime] + C[C@@H](O)[C@H]1C(=O)N2C(C(=O)O)=C(SCCNC=N)C[C@H]12 [Imipenem]
fitness (S. pneumoniae D39V [1]; first compound 0.007 µg/mL, partner 0.005 µg/mL): 0.987
fitness (S. pneumoniae D39V [1]; first compound 0.007 µg/mL, partner 0.01 µg/mL): 0.984
fitness (S. pneumoniae D39V [1]; first compound 0.007 µg/mL, partner 0.02 µg/mL): 0.986
fitness (S. pneumoniae D39V [1]; first compound 0.0078 µg/mL, partner 0.0065 µg/mL): 1
fitness (S. pneumoniae D39V [1]; first compound 0.0078 µg/mL, partner 0.013 µg/mL): ≥ 1
fitness (S. pneumoniae D39V [1]; first compound 0.0078 µg/mL, partner 0.026 µg/mL): 0.995
fitness (S. pneumoniae D39V [1]; first compound 0.014 µg/mL, partner 0.005 µg/mL): 0.979
fitness (S. pneumoniae D39V [1]; first compound 0.014 µg/mL, partner 0.01 µg/mL): ≥ 1
fitness (S. pneumoniae D39V [1]; first compound 0.014 µg/mL, partner 0.02 µg/mL): 0.991
fitness (S. pneumoniae D39V [1]; first compound 0.0155 µg/mL, partner 0.0065 µg/mL): 0.971
fitness (S. pneumoniae D39V [1]; first compound 0.0155 µg/mL, partner 0.013 µg/mL): 0.98
fitness (S. pneumoniae D39V [1]; first compound 0.0155 µg/mL, partner 0.026 µg/mL): 0.915
fitness (S. pneumoniae D39V [1]; first compound 0.028 µg/mL, partner 0.005 µg/mL): 0.92
fitness (S. pneumoniae D39V [1]; first compound 0.028 µg/mL, partner 0.01 µg/mL): 0.902
fitness (S. pneumoniae D39V [1]; first compound 0.028 µg/mL, partner 0.02 µg/mL): 0.881
fitness (S. pneumoniae D39V [1]; first compound 0.031 µg/mL, partner 0.0065 µg/mL): 0.39
fitness (S. pneumoniae D39V [1]; first compound 0.031 µg/mL, partner 0.013 µg/mL): 0.495
fitness (S. pneumoniae D39V [1]; first compound 0.031 µg/mL, partner 0.026 µg/mL): 0.325
Bliss interaction score (S. pneumoniae D39V [2]): 0.068
Bliss interaction score (S. aureus DSM 20231): -0.0424
Bliss interaction score (B. subtilis 168): -0.106
Bliss interaction score (S. aureus Newman): 0.155
